Measured values from patent publication US6627441B1, “Increasing levels of growth regulator and/or water stress during embryo development” (priority 1998, dated 2003).

Key:
Assay type in all cases: cell-based
[1] = system: Douglas fir somatic embryos; experiment: Douglas fir somatic embryogenesis (Example 11); settings: replacing PEG at week 5 or week 6; compared with PEG being maintained
Experimental: Douglas fir may be cultured using sucrose at 1-3% (30-90 mM), however, other sugars may be used at the same concentrations. Maintenance cultures usually contain the sugar at about 1%. […] Douglas fir embryogenic tissue was induced from developing seed. Embryos contained in megametophytes were induced and maintained on TX maintenance medium having 1% sucrose. This medium contained 0.2 g/L glutamine and 0.2 g/L casein hydrolysate. Selected embryogenic tissue was subcultured biweekly per petri dish. Medium was solidified with 2.4 g/L PHYTAGEL™. This medium contained 9 μM 2,4-D and 4.5 μM BA. Liquid suspension cultures were maintained in flasks containing 50 mL liquid maintenance medium Liquid cultures were subcultured weekly. For maturation, the embryogenic suspension was first precultured in liquid medium without growth regulators, and subcultured weekly. The water potential of the maintenance cultures and precultures remained below 150 mmol/kg. After one or two weeks of preculture, 1 to 2 g of filtered tissue was resuspended in 10 mL fresh medium and 0.75 mL of the new suspension was pipetted onto the solid maturation medium. Maturation medium contained calcium chloride at 105 mg/L, and ammonium nitrate was included at 400 mg/L. Glutamine was used at 0.8 g/L for the first week then reduced to 0.1 g/L thereafter. Casein hydrolysate was maintained at 0.2 g/L. The sugar was increased to 2-3% and the medium was solidified with Phytagel at 2.8 to 3.4 g/L. ABA was added into the medium after filter sterilization. The maturation medium also contained PEG. The ABA and water potential were raised following the schedule in the following table.
In some instances, the PEG was reduced and the water potential made up to the desired level using lactose at 0% in the first week, 1% in week 2, 4% in weeks 3 and 4, 5% in week 5, and 6% in week 6. Although this allowed a firmer gel to set than otherwise would occur with PEG alone, it may not provide any other benefit over full PEG (see, for example, Table 8), particularly if liquid culture medium is used. […] The embryos were desiccated and stored in a freezer as described for spruce, or germinated directly without desiccation. For germination, embryos were placed on half-strength basal medium containing 0.4 g/L calcium nitrate, 0.2 g/L ammonium nitrate, no hormones and 2% sucrose and 0.6% agar. These were grown in the light.

[2] = system: white spruce somatic embryos; experiment: PEG replacement during development, maturation frequency (Example 6); settings: treatment 2: PEG constant, lactose added from the third week; versus PEG control; FIG. 2
Experimental: (§1) This experiment was carried out to observe the effect of replacing the non-permeating water stress with a permeating water stress during development. Thus, immature somatic embryos from suspension culture were precultured in 1/20 strength hormone medium for one week then transferred to maturation medium containing 3% sucrose, 20 μM ABA and adjusted to 290 mmol/kg with PEG. They were transferred to fresh medium weekly in which the osmoticum and ABA was increased. For the control (treatment 1) the PEG concentration was increased (as outlined in Example 4, treatment 6). In treatment 2, the PEG remained constant and water potential was increased by adding lactose (treatment 2). In treatment 3, PEG was increased after the first week, then lactose was added at the third and fourth weeks, and in the fifth week PEG was removed and replaced completely with lactose. Treatment 4 was the same as treatment 3, except that sucrose was used in place of lactose. Treatment 5 was similar to treatment 3, except that PEG was replaced with lactose earlier so that PEG was replaced totally by lactose by the fourth week. Total development time was six weeks.
Each treatment comprised nine replicates. The number of embryos per treatment were scored and means prepared. […] The trend was that as PEG was replaced by permeating osmotica, the maturation frequency declined slightly. […]

[3] = system: somatic seedlings of white spruce; experiment: Germination and shoot development after replacing PEG with alternative osmotica (Example 8); settings: for shoot development frequency of somatic seedlings: after 4-5 weeks growth
Experimental: as §1
White spruce somatic embryos were produced using all treatments described in Example 6 (replacement of PEG with sucrose or lactose). […] Embryos were desiccated for two weeks, then rehydrated and visually selected for subsequent transfer to fresh medium. The embryos from all treatments germinated to produce root and epicotyl elongation (i e., 100% germination). Subsequent growth differed amongst the treatments. After four to five weeks growth, 87% of somatic seedlings from treatment 1 had visible new shoot growth (new needles). All other treatments had much lower shoot emergence frequencies.

[4] = system: white spruce somatic embryos; experiment: Effect of water stress and ABA on somatic embryo moisture contents (Example 4); settings: treatment 2: mannitol 290, 400, 540 mmol/kg with ABA 20, 30, 40 μM; six weeks
Experimental: Water potentials were measured for liquid media containing various osmotica at a range of concentrations, which were plotted on a curve. Determinations were made using a vapour pressure osmometer (Wescor). Moisture content determinations were done using methods described previously by Attree et al. (U.S. Pat. No. 5,464,769).
Embryos were cultured on medium containing 3% sucrose and ABA, with additional osmoticum adjusted to vary water potentials, as shown in Table 4.
Embryos were cultured for six weeks and moisture contents determined. Determinations for each treatment were made weekly, with three replicates per treatment. 50 embryos per replicate were used. In some instances, particularly for the control with low osmoticum, insufficient embryos were produced. In these cases, the minimum number of embryos used per replicate was thirty. For weeks 0 to 2, the embryos were too small to be used for moisture content determinations, so whole tissue was used instead.

OC[C@H]1O[C@@H](O[C@H]2[C@H](O)[C@@H](O)C(O)O[C@@H]2CO)[C@H](O)[C@@H](O)[C@H]1O (stereo partly shown) [lactose]
embryo development result [1]: very good results | maturation frequency [2]: slight decline | shoot development frequency of somatic seedlings ([3]; Treatment 2: 6.6% lactose, partial PEG replacement): 1.5% | shoot development frequency of somatic seedlings ([3]; Treatment 3: 10% lactose, mid replacement): 76.5% | shoot development frequency of somatic seedlings ([3]; Treatment 5: 10% lactose early replacement): 49.2% | appearance of embryos before desiccation ([3]; treatment 5 of Example 6 (PEG replaced early with lactose)): very slight splitting of the root cap region

OC[C@@H](O)[C@@H](O)[C@H](O)[C@H](O)CO [mannitol]
greening of embryos [4]: greening was prevented

OC[C@H]1O[C@@](CO)(O[C@H]2O[C@H](CO)[C@@H](O)[C@H](O)[C@H]2O)[C@@H](O)[C@@H]1O [sucrose]
embryo development result [1]: very good results | shoot development frequency of somatic seedlings ([3]; Treatment 4: 13% sucrose mid replacement): 1.6% | appearance of embryos before desiccation ([3]; treatment 4 of Example 6 (PEG replaced with sucrose)): very slight splitting of the root cap region
